{"source": "patent US7820665B2", "about": "“Imidazopyridazine inhibitors of PI3 kinase for cancer treatment” (Amgen Inc., priority 2007, dated 2010)", "key": {"[1]": {"test_system": "Akt phosphorylation at Ser473 in HCT116 cells", "test": "Cell-based phospho-AKT Ser473 assay (HCT116 Cell), MSD sandwich immunoassay;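 further: IGF-1 added at 100 ng/mL for 15 min after compound treatment, electrochemiluminescent readout of phospho-Akt, DMSO-only wells define maximum signal, IC50 reflects inhibition of phosphorylation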", "quoted_text": "This assay determines the ability of a compound to inhibit the phosphorylation of Serine 472 in Akt using a MSD based sandwich immunoassay (Meso Scale Detection, Meso Scale Discovery (MSD), Gaithersburg, Md.). HCT116 human colon carcinoma cell lines can be grown in McCoy's 5A growth medium (GIBCO, Carlsbad, Calif.) containing 10% FBS (GIBCO, Carlsbad, Calif.) and X1 Penicillin-streptomycin-glutamine (GIBCO, Carlsbad, Calif.). Prior to the assay, cells can be detached from the culture flask with trypsin, and re-suspended in complete media to give a final concentration of 1.6×10^5 cells per mL. Aliquots (100 μl) of the HCT116 cell suspension can be seeded into each well of a 96 well tissue culture plate to give a final density of 16,000 cells per well. Cells can then be incubated overnight at 37° C.\nThe following day the cells can be treated with serially diluted test compounds and incubated for 2 hours at 37° C. The culture media on the HCT 116 cells can be replaced with 189 μL McCoys media, supplemented with 0.1% BSA (ICN Biomedicals, Inc., Costa Mesa, Calif.). […] Aliquots (1 μL) of serially-diluted compounds can be transferred to 96 well tissue culture plates containing the HCT 116 cells. […] As a maximum response control, wells can contain 0.5% DMSO in place of compound. The plates can be mixed at 700 rpm for 2 min to ensure even distribution of the test compound and incubated for 2 hours at 37° C. Cells can then be stimulated with insulin-like growth factor 1 (Sigma, St Louis, Mo.) at final concentration of 100 ng/mL for 15 minutes at 37° C. The media can then be removed and the cells treated with 80 μL cell-lysis buffer (MSD) containing a cocktail of protease and phosphatase inhibitors for one hour at 4° C.\n25 μL Cell lysate can then be transferred to pre-blocked MSD assay plates pre-coated with a capture antibody specific for Akt, and the plates can be incubated for 2 hours at room temperature. The cell lysates can then be removed and plates can then be washed four times with 200 μl per well of Tris wash buffer (500 mM Tris, PH 7.5, 1.5 M NaCl, 0.2% Tween-20). Subsequently cells can be incubated for 1 hour at room temperature with a 25 μL solution containing the detection antibody, anti-phospho Akt (Ser 473) labeled with an electrochemiluminescent compound (Meso Scale Discovery SULPHO-TAG™ label, MSD, Gaithersburg, Md.). The detection antibody can be removed and plates can then be washed four times with 200 μL per well of Tris wash buffer. An aliquot of 150 μL of diluted MSD read buffer can then be applied to each well, and the electrochemiluminescent signal can be measured using a MSD SECTOR™ plate reader (Meso Scale Discovery, Gaithersburg, Md.). This instrument measures the intensity of emitted light to determine a quantitative measure of phosphorylated Akt in each well. The dose-response data obtained with each compound can be analyzed and the IC50 inhibition of Akt phosphorylation at Ser473 can be calculated."}, "PI3Kα": {"target": "T1, PI3Kα (Homo sapiens, UniProt P42336)", "T1 construct": "Full length p110 subunits of PI3K α, β and δ, N-terminally labeled with polyHis tag; polyHis (N); made in house; host or cells: Sf9 insect cells (baculovirus)", "T1 sequence (P42336 whole entry, species assumed)": "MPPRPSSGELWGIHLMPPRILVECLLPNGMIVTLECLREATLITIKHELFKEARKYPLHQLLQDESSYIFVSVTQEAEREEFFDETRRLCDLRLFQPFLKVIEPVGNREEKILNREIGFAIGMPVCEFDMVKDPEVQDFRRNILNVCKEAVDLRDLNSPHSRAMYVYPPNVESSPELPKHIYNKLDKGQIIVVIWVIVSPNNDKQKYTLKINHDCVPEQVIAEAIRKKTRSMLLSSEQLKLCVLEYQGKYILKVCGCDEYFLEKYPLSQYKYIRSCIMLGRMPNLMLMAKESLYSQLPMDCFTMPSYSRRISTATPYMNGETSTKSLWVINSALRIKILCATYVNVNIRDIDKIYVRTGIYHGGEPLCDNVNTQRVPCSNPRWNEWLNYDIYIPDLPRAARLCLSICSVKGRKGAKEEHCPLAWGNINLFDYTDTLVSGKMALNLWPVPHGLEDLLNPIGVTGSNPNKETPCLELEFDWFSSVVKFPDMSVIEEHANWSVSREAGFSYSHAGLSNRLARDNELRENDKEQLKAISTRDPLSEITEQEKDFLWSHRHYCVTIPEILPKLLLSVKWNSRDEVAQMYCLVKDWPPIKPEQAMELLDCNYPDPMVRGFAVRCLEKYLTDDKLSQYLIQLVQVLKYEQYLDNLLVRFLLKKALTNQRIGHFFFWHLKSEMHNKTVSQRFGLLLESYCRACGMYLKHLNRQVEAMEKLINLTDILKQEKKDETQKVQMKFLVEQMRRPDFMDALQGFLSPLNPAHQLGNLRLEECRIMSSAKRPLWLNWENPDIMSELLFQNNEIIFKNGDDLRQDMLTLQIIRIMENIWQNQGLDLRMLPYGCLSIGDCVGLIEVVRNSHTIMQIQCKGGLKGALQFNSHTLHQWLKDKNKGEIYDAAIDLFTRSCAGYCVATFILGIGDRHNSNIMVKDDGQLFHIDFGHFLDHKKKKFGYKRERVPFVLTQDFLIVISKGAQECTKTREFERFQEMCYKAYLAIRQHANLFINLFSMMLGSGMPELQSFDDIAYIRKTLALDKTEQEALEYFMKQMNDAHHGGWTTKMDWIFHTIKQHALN", "T1 sequence (P27986 whole entry partner, species assumed)": "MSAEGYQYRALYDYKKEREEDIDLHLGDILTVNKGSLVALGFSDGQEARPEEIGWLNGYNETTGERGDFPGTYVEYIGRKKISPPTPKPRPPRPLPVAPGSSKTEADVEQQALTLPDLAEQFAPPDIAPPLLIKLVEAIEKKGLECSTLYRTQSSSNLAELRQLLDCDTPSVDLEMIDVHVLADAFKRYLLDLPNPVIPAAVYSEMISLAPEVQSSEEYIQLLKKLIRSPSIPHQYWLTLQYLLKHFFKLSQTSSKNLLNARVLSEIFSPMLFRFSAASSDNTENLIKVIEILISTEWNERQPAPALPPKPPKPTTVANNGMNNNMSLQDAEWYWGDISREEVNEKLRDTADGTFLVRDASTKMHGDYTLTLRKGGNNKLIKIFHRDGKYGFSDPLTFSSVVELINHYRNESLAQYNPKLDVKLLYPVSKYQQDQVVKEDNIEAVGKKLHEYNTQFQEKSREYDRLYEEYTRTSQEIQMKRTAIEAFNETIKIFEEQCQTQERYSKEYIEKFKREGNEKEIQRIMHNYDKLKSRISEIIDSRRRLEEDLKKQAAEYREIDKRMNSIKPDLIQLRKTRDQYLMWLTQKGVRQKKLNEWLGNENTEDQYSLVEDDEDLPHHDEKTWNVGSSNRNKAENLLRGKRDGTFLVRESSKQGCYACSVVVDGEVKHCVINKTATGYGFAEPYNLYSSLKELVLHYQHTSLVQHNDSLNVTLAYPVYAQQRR", "test": "In vitro PI3 kinase enzyme assay (PI3K ATPLoss)", "type": "biochemical", "conditions": "recombinant p110α/p85, residual ATP by bioluminescence", "description": "Full length p110 subunits of PI3K α, β and δ, N-terminally labeled with polyHis tag, can be co-expressed with p85 with Baculo virus expression vectors in sf9 insect cells. P110/p85 heterodimers can be purified by sequential Ni-NTA, Q-HP, Superdex-100 chromatography. Purified α, β and δ isozymes can be stored at −20° C. in 20 mM Tris, pH 8, 0.2M NaCl, 50% glycerol, 5 mM DTT, 2 mM Na cholate. Truncated PI3Kγ, residues 114-1102, N-terminally labeled with polyHis tag, can be expressed with Baculo virus in Hi5 insect cells. The γ isozyme can be purified by sequential Ni-NTA, Superdex-200, Q-HP chromatography. The γ isozyme can be stored frozen at −80° C. in NaH2PO4, pH 8, 0.2M NaCl, 1% ethylene glycol, 2 mM β-mercaptoethanol.\nPI3K enzyme assays (alpha, beta, delta and gamma) can be performed in 25 μL with the above final concentrations of components in white polyproplyene plates. Phosphatidyl inositol phosphoacceptor, PtdIns(4,5)P2 (e.g. P4508) can be obtained from Echelon Biosciences, Salt Lake City, Utah. The ATPase activity of the alpha and gamma isozymes may not be greatly stimulated by PtdIns(4,5)P2 under these conditions, it can be omitted from the assay of these isozymes. Test compounds can be dissolved in DMSO and diluted with three-fold serial dilutions. The compound in DMSO (1 μL) may be added per test well, and the inhibition relative to reactions containing no compound, with and without enzyme can be determined. After assay incubation at RT, the reaction can be stopped and residual ATP can be determined by addition of an equal volume of a commercial ATP bioluminescence kit (Perkin Elmer EasyLite, Perkin Elmer, Waltham, Mass.) according to the manufacturer's instructions, and detected using an Analyst GT luminometer."}, "[2]": {"test_system": "phosphorylation of Akt at Serine 473 in U87 MG cells", "test": "pAkt AlphaScreen (U87 Cell)", "type": "cell-based", "conditions": "2 h compound, pAkt Ser473 AlphaScreen", "description": "The pAkt AlphaScreen® assay (PerkinElmer, Waltham, Mass.) determines whether there is phosphorylation of Akt at Serine 473 by recruitment of a phosphospecific antibody. This assay was performed using U87 MG cells. The U87 growth media consists of MEM (Gibco, Carlsbad, Calif.) supplemented with 10% FBS (Gibco), 1× Non-Essential Amino Acids (Gibco) and 1× Penicillin/Streptomycin/Glutamine (Gibco). The cells were maintained weekly using 0.05% Trypsin (Gibco) and replated in 150 mm TC-Treated Culture Dishes (Corning, Corning, N.Y.).\nThe first day of the assay, the adherent cells were trypsinized, media was added to the loose cells and cells were mixed to a homogenous mixture. 0.5 ml of the homogenous mixture was counted on the Beckman Coulter® Vi-CELL™ XR (Fullerton, Calif.). 50 frames of cells were counted and the number of viable cells was determined. The cells were then diluted to 0.25 million cells per ml, and centrifuged at 200 rcf for 5 minutes. The media was removed and the cells were reconstituted in fresh media for plating. The cells were plated at 20 μl per well on the PerkinElmer® Flexprop PLUS in Low Volume 384 Well White Tissue Culture Plates (Corning) with a final cell density of 5K cells per well. The plates were incubated overnight at 37° Celsius, 5% CO2.\nOn the second day, the compound plates were prepared, the cells were treated with compound and the pAkt reaction mix was added to the cell lysate. 384 well compound plates were prepared containing 1 μl of compound per well starting at 5 mM and diluted 1:2 across the row, resulting in a 22 well serial dilution. 39 μl of growth media was added to the compound plate in rows 1-22 using the PerkinElmer® FlexDrop PLUS resulting in a DMSO concentration of 2.5%. The cell plates and diluted compound plates were put onto the VELOCITY11™ VPREP™ 384 ST where the compound plate was mixed and 5 μl of serially diluted compound or controls was added to the cell plate. The final concentration of the compounds was 25 μM serially diluted to 11.9 pM in 0.5% DMSO. The cell plates were then incubated with compound for two hours at 37° Celsius, 5% CO2. After two hours, the media in the cell plates was aspirated using the BioTek® ELx405HT plate washer (Winooski, Vt.) removing the majority of media and compound without disturbing the adherent U87 cells. The following assay reagents are components of the SureFire® Akt (Ser 473) Phosphorylation 50K Point Kit (TGR BioSciences, Adelaide, Australia) and an IgG Detection Kit (PerkinElmer, Waltham, Mass.). 5 μl of 1× Lysis Buffer was added to each well using the PerkinElmer® FlexDrop PLUS. The plates were then incubated at room temperature on a shaker for ten minutes. The AlphaScreen® reaction was prepared under low light conditions (subdued or green light) including p-Akt (Ser 473) Reaction Buffer, Dilution Buffer, Activation Buffer, Acceptor Beads and Donor Beads at a ratio of 40:20:10:1:1 respectively. The AlphaScreen® reaction was added to the cell lysate at 6 μl per well using the PerkinElmer® FlexDrop PLUS. The plates were placed in a humid environment to reduce edge effects and incubated overnight at room temperature with restricted air flow in the dark.\nOn the final day of the experiment, the plates were read on the PerkinElmer® EnVision™ 2103 Multilable Reader using the standard AlphaScreen® readout. The POC is calculated and the data is analyzed to report the IC50 IP for pAkt at Serine 473."}, "[3]": {"conditions": "Homo sapiens, HCT-116, 2 h, read-out: HCT116 Cell IC50, HCT116 cells, 2 h compound, IGF-1 stimulation, pAkt Ser473"}, "[4]": {"conditions": "read-out: HCT116 Cell IC50, HCT116 cells, 2 h compound, IGF-1 stimulation, pAkt Ser473"}}, "note": "Like-named read-outs stand apart in the source and are kept apart here."}
{"smiles": "CC(=O)Nc1cn2nc(-c3cnc(Cl)c(NS(C)(=O)=O)c3)ccc2n1", "note": "[Example 19, N-(6-(6-Chloro-5-(methylsulfonamido)pyridin-3-yl)imidazo[1,2-b]pyridazin-2-yl)acetamide]", "values": [{"measurement": "IC50", "setting": "[1]; [3]", "value": 218, "unit": "nM"}, {"measurement": "IC50", "setting": "PI3Kα", "value": 5.7, "unit": "nM"}, {"measurement": "IC50", "setting": "[2]; Homo sapiens, U-87 MG, 2 h", "value": 133, "unit": "nM"}]}
{"smiles": "CC(=O)Nc1cn2nc(-c3cnc(Cl)c(NS(=O)(=O)c4c(C)cccc4Cl)c3)ccc2n1", "note": "[Example 34, N-(6-(6-Chloro-5-(2-chloro-6-methylphenylsulfonamido)pyridin-3-yl)imidazo[1,2-b]pyridazin-2-yl)acetamide]", "values": [{"measurement": "IC50", "setting": "[1]; [3]", "value": 3, "unit": "nM"}, {"measurement": "IC50", "setting": "PI3Kα", "value": 7, "unit": "nM"}, {"measurement": "IC50", "setting": "[2]; Homo sapiens, U-87 MG, 2 h", "value": 7, "unit": "nM"}]}
{"smiles": "CNC(C)c1ccc(S(=O)(=O)Nc2cc(-c3ccc4nc(NC(C)=O)cn4n3)cnc2Cl)cc1", "note": "(single isomer, unassigned) [Example 38, N-(6-(6-chloro-5-(4-(1-(methylamino)ethyl)phenylsulfonamido)pyridin-3-yl)imidazo[1,2-b]pyridazin-2-yl)acetamide]", "values": [{"measurement": "IC50", "setting": "[1]; [3]", "value": 124, "unit": "nM"}, {"measurement": "IC50", "setting": "PI3Kα", "value": 6, "unit": "nM"}, {"measurement": "IC50", "setting": "[2]; Homo sapiens, U-87 MG, 2 h", "value": 31, "unit": "nM"}]}
{"smiles": "CC(=O)Nc1cn2nc(-c3cnc(Cl)c(NS(=O)(=O)N4CCOCC4)c3)ccc2n1", "note": "[Example 41, N-(6-(6-Chloro-5-(morpholine-4-sulfonamido)pyridin-3-yl)imidazo[1,2-b]pyridazin-2-yl)acetamide]", "values": [{"measurement": "IC50", "setting": "[1]; [3]", "value": 75, "unit": "nM"}, {"measurement": "IC50", "setting": "PI3Kα", "value": 6, "unit": "nM"}, {"measurement": "IC50", "setting": "[2]; Homo sapiens, U-87 MG, 2 h", "value": 47, "unit": "nM"}]}
{"smiles": "CC(=O)Nc1cn2nc(-c3cnc(Cl)c(NS(=O)(=O)c4ccc(C(C)(C)O)cc4)c3)ccc2n1", "note": "[Example 35, N-(6-(6-Chloro-5-(4-(2-hydroxypropan-2-yl)phenylsulfonamido)pyridin-3-yl)imidazo[1,2-b]pyridazin-2-yl)acetamide]", "values": [{"measurement": "IC50", "setting": "[1]; [3]", "value": 49, "unit": "nM"}, {"measurement": "IC50", "setting": "PI3Kα", "value": 6, "unit": "nM"}, {"measurement": "IC50", "setting": "[2]; Homo sapiens, U-87 MG, 2 h", "value": 34, "unit": "nM"}]}
{"smiles": "CC(=O)Nc1cn2nc(-c3cnc(Cl)c(NS(=O)(=O)c4ccc(F)cc4)c3)ccc2n1", "note": "[Example 12, N-(6-(6-chloro-5-(4-fluorophenylsulfonamido)pyridin-3-yl)imidazo[1,2-b]pyridazin-2-yl)acetamide]", "values": [{"measurement": "IC50", "setting": "[1]; [3]", "value": 31, "unit": "nM"}, {"measurement": "IC50", "setting": "PI3Kα", "value": 7, "unit": "nM"}, {"measurement": "IC50", "setting": "[2]; Homo sapiens, U-87 MG, 2 h", "value": 14, "unit": "nM"}]}
{"smiles": "CC(=O)Nc1cn2nc(-c3cnc(Cl)c(NS(=O)(=O)c4cccc(OC(F)F)c4)c3)ccc2n1", "note": "[Example 33, N-(6-(6-Chloro-5-(3-(difluoromethoxy)phenylsulfonamido)pyridin-3-yl)imidazo[1,2-b]pyridazin-2-yl)acetamide]", "values": [{"measurement": "IC50", "setting": "[1]; [3]", "value": 24, "unit": "nM"}, {"measurement": "IC50", "setting": "PI3Kα", "value": 7, "unit": "nM"}, {"measurement": "IC50", "setting": "[2]; Homo sapiens, U-87 MG, 2 h", "value": 15, "unit": "nM"}]}
{"smiles": "CNC(C)c1ccc(S(=O)(=O)Nc2cc(-c3ccc4nc(NC(C)=O)cn4n3)cnc2Cl)cc1", "note": "(single isomer, unassigned) [Example 39, N-(6-(6-chloro-5-(4-(1-(methylamino)ethyl)phenylsulfonamido)pyridin-3-yl)imidazo[1,2-b]pyridazin-2-yl)acetamide]", "values": [{"measurement": "IC50", "setting": "[1]; [4]", "value": 105, "unit": "nM"}, {"measurement": "IC50", "setting": "PI3Kα", "value": 8, "unit": "nM"}, {"measurement": "IC50", "setting": "[2]", "value": 28, "unit": "nM"}]}
{"smiles": "Nc1cn2nc(-c3cnc(Cl)c(NS(=O)(=O)c4ccc(F)cc4)c3)ccc2n1", "note": "[Example 36, N-(5-(2-Aminoimidazo[1,2-b]pyridazin-6-yl)-2-chloropyridin-3-yl)-4-fluorobenzenesulfonamide]", "values": [{"measurement": "IC50", "setting": "[1]; [4]", "value": 2430, "unit": "nM"}, {"measurement": "IC50", "setting": "PI3Kα", "value": 83, "unit": "nM"}, {"measurement": "IC50", "setting": "[2]; Homo sapiens, U-87 MG, 2 h", "value": 415, "unit": "nM"}]}
